Assay [1] concerns the target Histamine H2 receptor (Homo sapiens, UniProt P25021).
The target in assay [2] is Histamine H1 receptor (Homo sapiens, UniProt P35367).
Assay [3] has as its target Hrh3 protein (Rattus norvegicus, UniProt Q5PPG3).
The target of assay [4] is Histamine H3 receptor (Homo sapiens, UniProt Q9Y5N1).
Assay [5] deals with Histamine H4 receptor (Homo sapiens, UniProt Q9H3N8).

Results on 5 compounds are retold here after BindingDB's records for doi:10.1016/j.ejphar.2004.01.015 (Abbott Laboratories, 2004).

Several values for one entry are separate records, joined by “and”; a condition that tells them apart may be missing. Equal entries are not always repeated.

Sequence of Histamine H1 receptor (P35367 whole entry): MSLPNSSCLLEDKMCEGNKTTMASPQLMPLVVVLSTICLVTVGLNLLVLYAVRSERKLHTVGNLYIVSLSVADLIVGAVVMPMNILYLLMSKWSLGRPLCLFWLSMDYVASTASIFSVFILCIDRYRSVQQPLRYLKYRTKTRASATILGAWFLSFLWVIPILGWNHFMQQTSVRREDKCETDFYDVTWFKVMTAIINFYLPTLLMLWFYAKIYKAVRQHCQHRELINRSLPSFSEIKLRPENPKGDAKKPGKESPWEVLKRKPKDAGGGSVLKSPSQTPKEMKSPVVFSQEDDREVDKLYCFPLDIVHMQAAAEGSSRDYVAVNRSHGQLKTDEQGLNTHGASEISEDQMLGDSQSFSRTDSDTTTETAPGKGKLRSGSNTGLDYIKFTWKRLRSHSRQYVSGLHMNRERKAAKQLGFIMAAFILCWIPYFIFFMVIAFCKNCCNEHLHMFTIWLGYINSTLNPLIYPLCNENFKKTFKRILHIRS
Sequence of Hrh3 protein (Q5PPG3 whole entry): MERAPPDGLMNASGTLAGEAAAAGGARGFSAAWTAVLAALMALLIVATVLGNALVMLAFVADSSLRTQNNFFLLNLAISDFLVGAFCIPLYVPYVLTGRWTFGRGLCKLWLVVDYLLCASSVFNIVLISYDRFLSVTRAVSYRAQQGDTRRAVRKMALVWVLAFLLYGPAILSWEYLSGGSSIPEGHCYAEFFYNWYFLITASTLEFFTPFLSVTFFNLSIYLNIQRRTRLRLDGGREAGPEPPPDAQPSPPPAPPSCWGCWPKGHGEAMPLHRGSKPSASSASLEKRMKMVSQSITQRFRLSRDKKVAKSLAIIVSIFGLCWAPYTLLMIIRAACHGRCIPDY
Sequence of Histamine H2 receptor (P25021 whole entry): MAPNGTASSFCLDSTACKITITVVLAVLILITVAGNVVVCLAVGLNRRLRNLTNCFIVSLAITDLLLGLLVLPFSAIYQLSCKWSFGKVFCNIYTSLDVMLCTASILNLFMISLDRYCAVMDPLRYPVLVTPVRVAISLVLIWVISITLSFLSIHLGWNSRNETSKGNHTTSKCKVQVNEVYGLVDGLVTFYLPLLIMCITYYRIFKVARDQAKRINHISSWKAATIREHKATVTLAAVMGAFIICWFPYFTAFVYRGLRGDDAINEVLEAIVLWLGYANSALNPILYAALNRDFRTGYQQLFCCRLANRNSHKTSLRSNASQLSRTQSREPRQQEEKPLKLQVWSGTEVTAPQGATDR
Sequence of Histamine H3 receptor (Q9Y5N1 whole entry): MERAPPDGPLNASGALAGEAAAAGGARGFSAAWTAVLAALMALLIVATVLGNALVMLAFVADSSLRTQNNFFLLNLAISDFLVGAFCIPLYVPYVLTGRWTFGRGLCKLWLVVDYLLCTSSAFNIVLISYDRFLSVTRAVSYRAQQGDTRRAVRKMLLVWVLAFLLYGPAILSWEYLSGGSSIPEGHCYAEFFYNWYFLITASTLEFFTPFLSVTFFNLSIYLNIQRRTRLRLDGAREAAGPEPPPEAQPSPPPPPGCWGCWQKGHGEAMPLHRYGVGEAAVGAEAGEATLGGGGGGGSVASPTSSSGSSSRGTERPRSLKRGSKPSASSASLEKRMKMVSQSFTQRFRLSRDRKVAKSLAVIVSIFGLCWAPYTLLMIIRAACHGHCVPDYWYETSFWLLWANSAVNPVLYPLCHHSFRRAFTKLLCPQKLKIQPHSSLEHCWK
Sequence of Histamine H4 receptor (Q9H3N8 whole entry): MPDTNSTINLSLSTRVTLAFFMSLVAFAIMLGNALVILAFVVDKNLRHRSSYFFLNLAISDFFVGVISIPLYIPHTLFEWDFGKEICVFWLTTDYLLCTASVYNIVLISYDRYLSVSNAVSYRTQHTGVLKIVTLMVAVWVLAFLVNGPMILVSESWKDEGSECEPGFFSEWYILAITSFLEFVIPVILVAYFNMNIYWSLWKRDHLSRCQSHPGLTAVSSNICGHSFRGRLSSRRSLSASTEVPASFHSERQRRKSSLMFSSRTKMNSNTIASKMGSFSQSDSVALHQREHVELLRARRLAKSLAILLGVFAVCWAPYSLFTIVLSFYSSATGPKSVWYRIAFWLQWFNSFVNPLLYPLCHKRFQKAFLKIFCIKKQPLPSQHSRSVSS

Consider `S=C(NC1CCCCC1)N1CCC(c2cnc[nH]2)CC1`, for which the Ki in assay [1] was greater than 10000 nM; in assay [2], greater than 10000 nM; in assay [3], 7.5 nM and 3.21 nM.
In the case of `O=C(c1ccc(OCCCc2cnc[nH]2)cc1)C1CC1`, the Ki in assay [1] was greater than 10000 nM; in assay [2] it was greater than 10000 nM; in assay [3], 0.654 nM and 0.427 nM.
As for `O=C(CCCCC1CCCCC1)N1CCC(c2c[nH]cn2)CC1`, the Ki was 499 nM and 136 nM in assay [4]; 7200 nM in assay [1]; 2560 nM in assay [2]; 734 nM in assay [5]; 25.8 nM in assay [3].
Turning to `CN(C)[C@@H]1CCN(CCCOc2ccc(-c3ccc(C#N)cc3)cc2)C1` [A-331440], the Ki was 22.7 nM and 3.24 nM in assay [4]; greater than 10000 nM in assay [1]; greater than 10000 nM in assay [5]; 21.7 nM and 6.28 nM in assay [3].
For `NCCc1c[nH]cn1` [[3H]histamine], the Ki in assay [3] is 4.9 nM and 2.66 nM.

The Ki is a dissociation constant, usually derived from enzyme kinetics or from competition with a known ligand. A lower Ki goes with a stronger hold on the target.
